Laboratory results from patent US10842779B2, “Heterocyclic compounds and their use in preventing or treating bacterial infections” (priority 2015, dated 2020).
Where two headings read alike, the source gives them in different places.

Legend:
Test in all cases: MIC of compounds alone, broth microdilution
Format in all cases: cell-based
E. coli = settings: Escherichia coli
Procedure: (§1) Method 2: MIC of Compounds and Synergy with Ceftazidime Against Bacterial Isolates (Table 2 and 3)
(§2) Compounds of the present invention were assessed against genotyped bacterial strains alone or in combination with the β-lactam ceftazidime. In the assays, MICs of said compounds, or of ceftazidime at fixed concentrations of said compounds were determined by the broth microdilution method according to the Clinical Laboratory Standards Institute (CLSI—M7-A7). Briefly, compounds alone according to the invention were prepared in DMSO and spotted (2 μL each) on sterile polystyrene plates (Corning, 3788). Compounds and ceftazidime dilutions were prepared in DMSO and spotted (1 μL each) on sterile polystyrene plates (Corning, 3788). Log phase bacterial suspensions were adjusted to a final density of 5×10^5 cfu/mL in cation-adjusted Mueller-Hinton broth (Beckton-Dickinson) and added to each well (98 μL). Microplates were incubated for 16-20 h at 35° C. in ambient air. The MIC of the compounds was defined as the lowest concentration of said compounds that prevented bacterial growth as read by visual inspection. The MIC of ceftazidime at each compound concentration was defined as the lowest concentration of ceftazidime that prevented bacterial growth as read by visual inspection.

C. murliniae = system: C. murliniae
Procedure: as §1, §2

K. pneumoniae = settings: Klebsiella pneumoniae
Procedure: as §1, §2

E. cloacae = settings: Enterobacter cloacae
Procedure: as §1, §2

P. aeruginosa = settings: Pseudomonas aeruginosa
Procedure: as §1, §2

E. aerogenes = settings: Klebsiella aerogenes
Procedure: as §1, §2

C. freundii = settings: Citrobacter freundii
Procedure: as §1, §2

S. marcescens = settings: Serratia marcescens, SMA UFR30, beta-lactamases OXA-405
Procedure: as §1, §2

M. morganii = settings: Morganella morganii, MMO 200321, beta-lactamases TEM-1, CTX-M-15 OXA-1
Procedure: as §1, §2

K. oxytoca = settings: Klebsiella oxytoca
Procedure: as §1, §2

P. mirabilis = settings: Proteus mirabilis, PMI UFR82, beta-lactamases CMY-2
Procedure: as §1, §2

## CC(C)(O/N=C(\C(=O)N[C@@H]1C(=O)N2C(C(=O)[O-])=C(C[n+]3ccccc3)CS[C@H]12)c1csc(N)n1)C(=O)O [CAZ, ceftazidime, reference compound]
E. coli; ECO 180070, beta-lactamases TEM-1, CTX-M-15, read-out: MIC
  MIC: 64 µg/mL
E. coli; ECO 190314, beta-lactamases CTX-M-1, read-out: MIC
  MIC: 8 µg/mL
E. coli; ECO 190317, beta-lactamases TEM-1, SHV-12, CTX-M-15 OXA-1
  MIC: 128 µg/mL
E. coli; ECO 190457, beta-lactamases CTX-M-15 OXA-1, read-out: MIC
  MIC: 16 µg/mL
E. coli; ECO 190549, beta-lactamases CTX-M-1, read-out: MIC
  MIC: 8 µg/mL
E. coli; ECO 200159, beta-lactamases TEM-1, CTX-M-14, read-out: MIC
  MIC: 2 µg/mL
E. coli; ECO 200259, beta-lactamases CTX-M-14, read-out: MIC
  MIC: 4 µg/mL
E. coli; ECO 200344, beta-lactamases CTX-M-1, read-out: MIC
  MIC: 16 µg/mL
E. coli; ECO 260096, beta-lactamases CTX-M-132
  MIC: 128 µg/mL
E. coli; ECO 260304, beta-lactamases CTX-M-15, read-out: MIC
  MIC: 16 µg/mL
E. coli; ECO 260508, beta-lactamases TEM-1, CTX-M-15 OXA-1
  MIC: 128 µg/mL
E. coli; ECO UFR16, beta-lactamases TEM-1, CTX-M-15 OXA-1 OXA-48, read-out: MIC
  MIC: 64 µg/mL
E. coli; ECO UFR17, beta-lactamases TEM-1, CTX-M-15 CMY-2 OXA-1 OXA-181
  MIC: > 128 µg/mL
E. coli; ECO UFR18, beta-lactamases CTX-M-15 OXA-204
  MIC: > 128 µg/mL
E. coli; ECO UFR19, beta-lactamases CTX-M-15 CMY-2 OXA-1 OXA-204
  MIC: 128 µg/mL
E. coli; ECO UFR32, beta-lactamases TEM-1, VEB-1 OXA-10
  MIC: > 128 µg/mL
E. coli; ECO UFR39, beta-lactamases CTX-M-15 NDM-1
  MIC: > 128 µg/mL
E. coli; ECO UFR41, beta-lactamases TEM-1, CTX-M-15 CMY-2 OXA-1 NDM-4
  MIC: > 128 µg/mL
E. coli; ECO UFR45, beta-lactamases TEM-1 CMY-4 OXA-1 OXA-48 VIM-1, read-out: MIC
  MIC: 2 µg/mL
E. coli; ECO UFR52, beta-lactamases TEM-1, SHV-12 IMP-8
  MIC: > 128 µg/mL
E. coli; ECO UFR61O, beta-lactamases TEM-1 KPC-2
  MIC: 128 µg/mL
E. coli; ECO UFR62, beta-lactamases TEM-1, CTX-M-9 KPC-2, read-out: MIC
  MIC: 16 µg/mL
E. coli; ECO UFR74, beta-lactamases SHV-1 DHA-1
  MIC: 128 µg/mL
C. murliniae
  MIC: > 128 µg/mL
K. pneumoniae; BAA1898, alone, KPN BAA-1898, beta-lactamases TEM-1, SHV-11, SHV-12 KPC-2
  MIC: 256 µg/mL
K. pneumoniae; alone, KPN 6299, beta-lactamases TEM-1, SHV-11 OXA-163
  MIC: 256 µg/mL
K. pneumoniae; alone, KPN 110376, beta-lactamases TEM-1, SHV-1, CTX-M-15 OXA-1 OXA-48
  MIC: 128 µg/mL
K. pneumoniae; alone, KPN 131119, beta-lactamases TEM-1, SHV-11, CTX-M-15 OXA-1 OXA-48
  MIC: > 128 µg/mL
K. pneumoniae; alone, KPN 160143, beta-lactamases TEM-1, SHV-1, CTX-M-15 KPC-2 OXA-1
  MIC: 128 µg/mL
K. pneumoniae; alone, KPN 190128, beta-lactamases TEM-1, SHV-32, CTX-M-15 OXA-1
  MIC: > 128 µg/mL
K. pneumoniae; alone, KPN 190270, beta-lactamases TEM-1, SHV-76, CTX-M-15 OXA-1
  MIC: > 128 µg/mL
K. pneumoniae; alone, KPN 190425, beta-lactamases TEM-1, SHV-1, CTX-M-15 OXA-1
  MIC: > 128 µg/mL
K. pneumoniae; alone, KPN 190551, beta-lactamases TEM-1, SHV-1, CTX-M-15 OXA-1, read-out: MIC
  MIC: 64 µg/mL
K. pneumoniae; alone, KPN 200047, beta-lactamases TEM-1, SHV-32, CTX-M-15 OXA-1
  MIC: 128 µg/mL
K. pneumoniae; alone, KPN 200327, beta-lactamases TEM-1, SHV-1, CTX-M-15 OXA-1, read-out: MIC
  MIC: 32 µg/mL
K. pneumoniae; alone, KPN 260251, beta-lactamases TEM-1, SHV-11, SHV-12, CTX-M-15 KPC-2
  MIC: > 128 µg/mL
K. pneumoniae; alone, KPN 260252, beta-lactamases TEM-1, SHV-11 KPC-3
  MIC: > 128 µg/mL
K. pneumoniae; alone, KPN 260376, beta-lactamases SHV-1, SHV-49 OXA-1
  MIC: 128 µg/mL
K. pneumoniae; alone, KPN 270077, beta-lactamases TEM-1, SHV-1, CTX-M-15
  MIC: 128 µg/mL
K. pneumoniae; alone, KPN 700603, beta-lactamases SHV-18 OXA-2, read-out: MIC
  MIC: 64 µg/mL
K. pneumoniae; alone, KPN 6122012, beta-lactamases SHV-1 NDM-1
  MIC: > 128 µg/mL
K. pneumoniae; alone, KPN ARA, beta-lactamases TEM-1, SHV-11, CTX-M-15 OXA-1 OXA-48
  MIC: > 128 µg/mL
K. pneumoniae; alone, KPN LIB, beta-lactamases SHV-11 OXA-48, read-out: MIC
  MIC: 0.25 µg/mL
K. pneumoniae; alone, KPN UFR22_O, beta-lactamases TEM-1, SHV-1 OXA-48, read-out: MIC
  MIC: 2 µg/mL
K. pneumoniae; alone, KPN UFR24, beta-lactamases TEM-1, SHV-2, SHV-11 OXA-1 OXA-48 OXA-47
  MIC: > 128 µg/mL
K. pneumoniae; alone, KPN UFR25, beta-lactamases TEM-1, SHV-11, CTX-M-15 OXA-162
  MIC: 128 µg/mL
K. pneumoniae; alone, KPN UFR27, beta-lactamases TEM-1, SHV-28, CTX-M-15 OXA-204
  MIC: > 128 µg/mL
K. pneumoniae; alone, KPN UFR28, beta-lactamases TEM-1, SHV-1, CTX-M-15 OXA-1 OXA-232
  MIC: 128 µg/mL
K. pneumoniae; alone, KPN UFR42, beta-lactamases SHV-2, CTX-M-15 OXA-1 OXA-181 NDM-1
  MIC: > 128 µg/mL
K. pneumoniae; alone, KPN UFR43, beta-lactamases SHV-11, CTX-M-15 CMY-2 OXA-1 NDM-1
  MIC: > 128 µg/mL
K. pneumoniae; alone, KPN UFR53, beta-lactamases TEM-1 IMP-1
  MIC: > 128 µg/mL
K. pneumoniae; alone, KPN UFR65, beta-lactamases TEM-1, SHV-11 KPC-2
  MIC: 128 µg/mL
K. pneumoniae; alone, KPN UFR66, beta-lactamases TEM-1, SHV-11, CTX-M-15 KPC-2
  MIC: > 128 µg/mL
K. pneumoniae; alone, KPN UFR68, beta-lactamases TEM-1, SHV-11, CTX-M-15 KPC-3
  MIC: > 128 µg/mL
K. pneumoniae; alone, KPN UFR77, beta-lactamases CMY-2, read-out: MIC
  MIC: 64 µg/mL
K. pneumoniae; alone, KPN UFR79, beta-lactamases DHA-1 OXA-1, read-out: MIC
  MIC: 32 µg/mL
K. pneumoniae; alone, KPN UFR80, beta-lactamases SHV-11 DHA-1 OXA-1, read-out: MIC
  MIC: 0.5 µg/mL
K. pneumoniae; alone, KPN UFR81, beta-lactamases TEM-1, SHV-1 DHA-1 OXA-48
  MIC: 128 µg/mL
E. cloacae; ECL 2185D, beta-lactamases OXA-163
  MIC: 128 µg/mL
E. cloacae; ECL 190310, beta-lactamases AmpC
  MIC: > 128 µg/mL
E. cloacae; ECL 190408, beta-lactamases TEM-1, CTX-M-15 OXA-1
  MIC: 128 µg/mL
E. cloacae; ECL 200138, beta-lactamases AmpC
  MIC: > 128 µg/mL
E. cloacae; ECL 200322, beta-lactamases TEM-1, CTX-M-15 OXA-1
  MIC: > 128 µg/mL
E. cloacae; ECL 260033, beta-lactamases AmpC
  MIC: > 128 µg/mL
E. cloacae; ECL 260253, beta-lactamases TEM-1 KPC-3
  MIC: > 128 µg/mL
E. cloacae; ECL 260323, beta-lactamases AmpC
  MIC: > 128 µg/mL
E. cloacae; ECL 260508, beta-lactamases TEM-1, CTX-M-15, read-out: MIC
  MIC: 64 µg/mL
E. cloacae; ECL HAN, beta-lactamases OXA-35
  MIC: > 128 µg/mL
E. cloacae; ECL NEM146383, beta-lactamases AmpC
  MIC: > 128 µg/mL
E. cloacae; ECL P99, beta-lactamases AmpC
  MIC: 128 µg/mL
E. cloacae; ECL UFR12, beta-lactamases CTX-M-9 OXA-48, read-out: MIC
  MIC: 2 µg/mL
E. cloacae; ECL UFR13, beta-lactamases TEM-1, SHV-12, CTX-M-9 OXA-48
  MIC: > 128 µg/mL
E. cloacae; ECL UFR14, beta-lactamases TEM-1, SHV-12, CTX-M-15 DHA-1 OXA-1 OXA-48
  MIC: > 128 µg/mL
E. cloacae; ECL UFR38, beta-lactamases CTX-M-15 NDM-1
  MIC: > 128 µg/mL
E. cloacae; ECL UFR51, beta-lactamases SHV-12 IMP-8
  MIC: > 128 µg/mL
E. cloacae; ECL UFR60, beta-lactamases TEM-1, CTX-M-15 KPC-2
  MIC: > 128 µg/mL
E. cloacae; ECL UFR70, beta-lactamases TEM-1, CTX-M-15 CMY-2 OXA-1
  MIC: > 128 µg/mL
E. cloacae; ECL UFR84, beta-lactamases TEM-1 AmpC OXA-1
  MIC: > 128 µg/mL
E. cloacae; ECL UFR85, beta-lactamases TEM-1, CTX-M-15 AmpC
  MIC: > 128 µg/mL
P. aeruginosa
  MIC: 128 µg/mL
P. aeruginosa; CIP107051
  MIC: 256 µg/mL
E. aerogenes
  MIC: 128 µg/mL
C. freundii
  MIC: > 128 µg/mL
C. freundii; alone, CFR UFR10, beta-lactamases OXA-48, read-out: MIC
  MIC: 64 µg/mL
C. freundii; alone, CFR UFR11, beta-lactamases TEM-1 OXA-1 OXA-48, read-out: MIC
  MIC: 8 µg/mL
S. marcescens
  MIC: 16 µg/mL
M. morganii
  MIC: 16 µg/mL
K. oxytoca
  MIC: 128 µg/mL
P. mirabilis
  MIC: 4 µg/mL
